Data set [1] deals with HCT116 (colorectal carcinoma, K Ras G13D) cells. Description: Cell proliferation (Alamar Blue) assay, HCT116. The format is cell-based, human. Particulars: Homo sapiens, HCT-116, HCT116 cells. The procedure, abridged: (§1)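 IC50 values derive from variable-slope sigmoidal fits of Alamar Blue fluorescence (540 nm excitation, 590 nm emission, 1-3 h dye incubation). Compound treatment ran 72 h at 37° C./5% CO2 over roughly 0.0005-10 uM in 3-fold steps, on cells plated at 5000/well and pre-incubated 16-24 h.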
In general terms: Resazurin is reduced to fluorescent resorufin, in cell work by metabolically active cells.

Data set [2] has as its system HT-29 (colorectal carcinoma, B-RafV600E) cells. Description: Cell proliferation (Alamar Blue) assay, HT-29. Particulars: Homo sapiens, HT-29, HT29 cells. It counts as cell-based, human. The procedure, abridged:
as §1

The subject of data set [3] is human melanoma xenograft model (A375) harboring B-RAF V600E mutation. Put plainly: A375 human melanoma xenograft model, tumor growth inhibition. It counts as in vivo, mice. Particulars: 50 mg/kg BID orally for 19 days. As for the experimental part: Foxn1 nu/nu strain of female mice (obtained from Charles River Laboratories, USA), 8-10 weeks of age, body weight range 23-25 g, were used for the tumor xenograft efficacy studies. Human cancer cell lines (such as melanoma A375, colorectal HT29, pancreatic BxPC3, colorectal HCT116, and lung A549) were first grown in vitro, and then about five million (5×10^6) of these cells in 100 μL of serum free medium were mixed with an equal amount of matrigel, and the entire mixture was injected subcutaneously at the right flank region of mice. The tumors were measured with Vernier calipers periodically after the first week of injection. […]
For PO dosing, the compounds were prepared in a formulation containing 0.5% Methyl cellulose and 0.01% Tween 80. […] Tumors size and body weights were measured twice or thrice in a week. […]
Changes in tumor volume (Δ volumes) for each treated (T) and control (C) group were calculated by subtracting the mean tumor volume on the first day of treatment (starting day) from the mean tumor volume on the specified observation day. […] Percentage tumor growth inhibition was calculated as [100−% T/C]. Percentage body weight change was calculated as [(Body weight on specified observation day−Body weight on starting day)/Body weight on starting day]×100. […]

Data set [4] relates to phosphorylation of RSK1(S380) (the downstream target of ERK1/2). Description: Phospho-RSK1(S380) ELISA assay in HT-29 cells. It counts as cell-based, human. Particulars: Homo sapiens, HT-29, HT29 cells, phospho-RSK1(S380); read-out: Mechanistic Cell Assay RSK1 Phos HT29 IC50. The procedure, abridged:
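IC50 values derive from a variable-slope sigmoidal fit of sandwich-ELISA signal (450 nm) for RSK1 Ser380 phosphorylation. The cells were B-RafV600E HT-29 colorectal line, exposed to serially diluted compound for 2 h after overnight seeding, then lysed at 4° C.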
For orientation: In an ELISA, binding on a coated surface is turned into a signal by an enzyme label.

As for `Cc1cnc(N[C@H]2CCOC2)nc1-n1cnc(C(=O)N[C@H](CN)c2cccc(Cl)c2)c1` [Example 255, N-((S)-2-amino-1-(3-chlorophenyl)ethyl)-1-(5-methyl-2-(((S)-tetrahydrofuran-3-yl)amino)pyrimidin-4-yl)-1H-imidazole-4-carboxamide], the IC50 in data set [1], in data set [2] and in data set [4] was at most 0.1 µM each time. Besides, in data set [3], the body weight loss result is “no significant body weight loss”.

Usually IC50 stands for the concentration needed to halve the response being measured.

For the origin of these results see patent US11925629B2, “Heterocyclic inhibitors of ERK1 and ERK2 and their use in the treatment of cancer” (Asana Biosciences, LLC, priority 2015, dated 2024).
